Data from patent US20260148853A1, “UQCC2-BASED COMPUTER-ASSISTED METHOD, SYSTEM, AND DEVICE FOR DIAGNOSING OSIMERTINIB-RESISTANT LUNG CANCER, PREDICTING DRUG THERAPEUTIC EFFECTS, AND SCREENING DRUGS TARGETED FOR OSIMERTINIB-RESISTANT LUNG CANCER” (THE SECOND HOSPITAL OF DALIAN MEDICAL UNIVERSITY, priority 2024, published 2026).
d = 2'-deoxy (DNA)

Key:
Type in all cases: cell-based
[1] = system: UQCC2; experiment: western blot of UQCC2 protein expression in NCI-H1975/OR cells treated with Ctrl, Osim or Lomi; settings: NCI-H1975/OR cells (osimertinib-resistant), lomitapide alone vs Osim and Ctrl, FIG. 9
Description: In a specific embodiment, the protein expression levels of UQCC2 in the NCI-H1975 cells and the NCI-H1975/OR cells (Ctrl) were determined by western blot assay, or the like. The NCI-H1975/OR cells (Ctrl) were osimertinib-resistant cells. The western blot assay used anti-UQCC2 (antibody dilution ratio of 1:1000, Proteintech, #25781-1-AP). Anti-GAPDH (antibody dilution ratio of 1:50,000, Proteintech, #60004-1-Ig) was used as a loading control. Significance (denoted as P) was determined using GraphPad Prism software, etc. All statistical analyses were performed using data from at least three independent experiments. […] “*” refers to a marker sign of significance.
In a specific embodiment, the protein expression of UQCC2 in the NCI-H1975/OR cells (treated with Ctrl, Osim, or Lomi alone) was determined by western blot assay. The western blot assay was performed using the following antibody: anti-UQCC2 (antibody dilution ratio of 1:1000, Proteintech, #25781-1-AP). Anti-GAPDH (antibody dilution ratio of 1:50,000, Proteintech, #60004-1-Ig) was used as a loading control. Significance was calculated using GraphPad Prism software, etc.

[2] = system: UQCC2; experiment: western blot of UQCC2 after siRNA knockdown of METTL3 in H1975/OR cells; settings: FIG. 11B
From the text: (§1) In one embodiment, the correlation between METTL3 and UQCC2 expression was investigated by western blot assay after knockdown of the gene expression of METTL3 or UQCC2 in H1975/OR cells through small interfering RNA (siRNA), etc. The knockdown may be a partial reduction in the expression level of a specific gene.
(§2) siMETTL3 (5′-3′) (siRNA for METTL3 gene knockdown): sense strand GCACUUGGAUCUACGGAAU(dT)(dT); antisense strand AUUCCGUAGAUCC AAGUGC(dT)(dT); siUQCC2 (5′-3′) (siRNA for UQCC2 gene knockdown): sense strand: […], antisense strand: […].
(§3) In some embodiments, the western blot assay was performed using the following antibodies: anti-METTL 3 (antibody dilution ratio of 1:2000; #15073-1-AP; Proteintech) and anti-UQCC2 (antibody dilution ratio of 1:1000, Proteintech, #25781-1-AP). Anti-GAPDH (antibody dilution ratio 1:50,000, Proteintech, #60004-1-Ig) was used as a loading control. Significance was calculated using GraphPad Prism software, etc.

[3] = system: autophagosome marker LC3; experiment: immunofluorescence assay of LC3 after UQCC2 knockdown in H1975/OR cells; settings: FIG. 12
Description: In one embodiment, the expression of the autophagosome marker LC3 was analyzed by the immunofluorescence assay after the UQCC2 knockdown in H1975/OR cells. siUQCC2 (5′-3′): sense strand: […]; antisense strand: […].
In some embodiments, the H 1975/OR cells may be fixed with 4% formaldehyde, permeabilized with 0.2% Triton X-100, and blocked with 5% bovine serum albumin. The cells were then incubated with the indicated antibodies at 4° C. overnight and stained with fluorescently coupled secondary antibodies and DAPI solution. The H1975/OR cells were photographed under a fluorescence microscope (Leica DM6B Thunder). Anti-LC3 (antibody dilution ratio of 1:100; antibody used was Proteintech, No. 81004-1-RR).

[4] = system: autophagosome markers LC3 and p62; experiment: western blot of autophagosome markers after UQCC2 knockdown in H1975/OR cells; settings: FIG. 11
Description: In a specific embodiment, the impact of UQCC2 knockdown in H1975/OR cells on the expression of the autophagosome markers LC3 and p62 was investigated by western blot assay. siUQCC2 (5′-3′): sense strand: […]; antisense strand: […].
In some embodiments, the western blot assay was performed using the following antibodies: anti-UQCC 2 (antibody dilution ratio of 1:1000, Proteintech, #25781-1-AP), anti-LC3 (antibody dilution ratio of 1:2000; #81004-1-RR; Proteintech), and anti-p 62 (antibody dilution ratio of 1:5000; #80294-1-RR; Proteintech). Anti-GAPDH (Antibody dilution ratio 1:50,000, Proteintech, #60004-1-Ig) was used as a loading control. Significance was calculated using GraphPad Prism software, etc.

[5] = system: METTL3; experiment: western blot of METTL3 after siRNA knockdown of UQCC2 in H1975/OR cells; settings: FIG. 11C
From the text: as §1, §2, §3

O=C(NC1CCN(CCCCC2(C(=O)NCC(F)(F)F)c3ccccc3-c3ccccc32)CC1)c1ccccc1-c1ccc(C(F)(F)F)cc1 [lomitapide]
protein expression of UQCC2 [1]: significantly reduced

siMETTL3: siRNA for METTL3 gene knockdown; sense strand GCACUUGGAUCUACGGAAU(dT)(dT) (antisense AUUCCGUAGAUCCAAGUGC; sense: 3' dTdT, sugars by position and backbone not given here; antisense: chemistry not given here)
expression of UQCC2 [2]: downregulates

siUQCC2: siRNA for UQCC2 gene knockdown; sense strand GACUCCAUUCAAACUACUATT, antisense strand UAGUAGUUUUGAAUGGAGUCTT (chemistry not fully specified)
autophagy [3]: significantly activated
expression of autophagosome marker LC3 [3]: up-regulation
autophagy [4]: significantly activated
expression of autophagosome marker LC3 [4]: upregulation
expression of autophagosome marker p62 [4]: upregulation
expression of METTL3 [5]: does not affect
